Measured values published in BindingDB's records for doi:10.7270/Q2VQ313H (Nmmlsc, 2008).
Where a name gives a salt, the structure may show the parent alone.

Target: Estrogen receptor beta (Homo sapiens, UniProt Q92731)
Experiment: competitive ligand binding to estrogen receptor beta – cell-based, Cos7 ERbeta-GFP, E2-Alexa633, flow cytometry, dose response (AID 1221)
[1] = inactive by the depositor's call

Chain of Estrogen receptor beta (Q92731 whole entry): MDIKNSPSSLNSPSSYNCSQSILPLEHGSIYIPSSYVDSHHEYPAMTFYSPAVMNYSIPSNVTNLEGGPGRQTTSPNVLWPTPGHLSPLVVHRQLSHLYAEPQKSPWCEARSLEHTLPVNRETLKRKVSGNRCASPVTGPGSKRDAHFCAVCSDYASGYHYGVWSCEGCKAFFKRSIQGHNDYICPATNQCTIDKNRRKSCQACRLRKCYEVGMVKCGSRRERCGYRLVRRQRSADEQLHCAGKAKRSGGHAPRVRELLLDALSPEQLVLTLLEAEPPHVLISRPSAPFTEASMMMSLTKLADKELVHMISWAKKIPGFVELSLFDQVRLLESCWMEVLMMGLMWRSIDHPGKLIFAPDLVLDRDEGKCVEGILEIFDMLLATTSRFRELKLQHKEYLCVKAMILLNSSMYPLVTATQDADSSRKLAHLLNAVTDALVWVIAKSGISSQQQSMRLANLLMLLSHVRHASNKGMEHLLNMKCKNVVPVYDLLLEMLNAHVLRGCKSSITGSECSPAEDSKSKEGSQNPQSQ

## COc1ccc(NS(=O)(=O)c2ccc3c(c2)[C@H]2C=CC[C@H]2[C@@H](c2ccc(C(=O)O)cc2)N3)cc1
[1]
  EC50: 2280 nM

## Nc1ccc(-c2nc3cc([N+](=O)[O-])ccc3[nH]2)cc1
[1]
  EC50: 2350 nM

## CC(=O)c1ccc2c(c1)[C@@H]1C=CC[C@@H]1[C@H](c1cc3c(cc1Br)OCO3)N2
  EC50: 184 nM

## CC(=O)c1ccc2c(c1)C1C=CCC1C(c1cccc([N+](=O)[O-])c1)N2 (centres undefined) [1-[4-(3-nitrophenyl)-3a,4,5,9b-tetrahydro-3H-cyclopenta[c]quinolin-8-yl]ethanone]
  EC50: > 10000 nM

## COc1ccccc1N1CCN(C(=O)c2ccc3nc(-c4ccco4)c(-c4ccco4)nc3c2)CC1 [2,3-di-2-furyl-6-{[4-(2-methoxyphenyl)piperazin-1-yl]carbonyl}quinoxaline]
  EC50: 0.87 nM

## O=C(OCC(=O)N1CCN(C(=O)c2ccco2)CC1)c1cc(-c2ccco2)nc2ccccc12 [2-(2-furanyl)-4-quinolinecarboxylic acid [2-[4-[2-furanyl(oxo)methyl]-1-piperazinyl]-2-oxoethyl] ester]
[1]
  EC50: 16.3 nM

## O=C(Nc1cc(C(F)(F)F)ccc1N1CCOCC1)C1Cc2ccccc2CN1C(=O)c1ccco1 (centres undefined) [2-(2-furoyl)-N-[2-morpholino-5-(trifluoromethyl)phenyl]-3,4-dihydro-1H-isoquinoline-3-carboxamide]
  EC50: 1260 nM

## CCn1nnc(NC(=O)CSc2ccc(Cl)cc2)n1 [2-(4-chlorophenyl)sulfanyl-N-(2-ethyl-1,2,3,4-tetrazol-5-yl)ethanamide]
  EC50: > 10000 nM

## CCc1ccc(-c2nn(-c3ccccc3)cc2CSC(=N)N)cc1 [2-[[3-(4-ethylphenyl)-1-phenyl-pyrazol-4-yl]methyl]isothiourea;hydrochloride]
  EC50: 39.9 nM

## Cc1cc(-c2nn3c(-c4ccccc4)nnc3s2)c2ccccc2n1 [2-methyl-4-(3-phenyl[1,2,4]triazolo[3,4-b][1,3,4]thiadiazol-6-yl)quinoline]
[1]
  EC50: 4180 nM

## CCCCOC(=O)c1c(C)oc2ccc(NS(=O)(=O)c3ccc4c5c(cccc35)C(=O)N4)cc12 [2-methyl-5-[(2-oxo-1H-benzo[cd]indol-6-yl)sulfonylamino]-3-benzofurancarboxylic acid butyl ester]
[1]
  EC50: 83.7 nM

## Cc1oc2cc(O)ccc2c(=O)c1Oc1ccccc1 [2-methyl-7-oxidanyl-3-phenoxy-chromen-4-one]
[1]
  EC50: 438 nM

## CC(=O)Oc1ccc(C2Nc3c(C(=O)O)ccc([N+](=O)[O-])c3C3C=CCC32)cc1 (centres undefined) [4-(4-acetoxyphenyl)-9-nitro-3a,4,5,9b-tetrahydro-3H-cyclopenta[c]quinoline-6-carboxylic acid]
  EC50: > 10000 nM

## O=C(COC(=O)CCC(=O)c1cccs1)NCc1ccco1 [4-keto-4-(2-thienyl)butyric acid [2-(2-furfurylamino)-2-keto-ethyl] ester]
  EC50: 1.74 nM

## Cc1ccc(C(=O)N/N=C/c2ccc([N+](=O)[O-])s2)cc1 [4-methyl-N-[(5-nitro-2-thiophenyl)methylideneamino]benzamide]
[1]
  EC50: 70.7 nM

## Nc1ncnc2c1ncn2C1CCC(CO)C(O)C1 (centres undefined) [5-(6-aminopurin-9-yl)-2-(hydroxymethyl)-1-cyclohexanol]
  EC50: 2.14 nM

## O=C(c1cc2ncc(Br)cn2n1)N1CCN(C(=O)c2ccco2)CC1 [6-bromo-2-{[4-(2-furoyl)-1-piperazinyl]carbonyl}pyrazolo[1,5-a]pyrimidine]
  EC50: 2.73 nM

## O=C(O)c1ccc([N+](=O)[O-])c2c1NC(c1ccccc1)C1CC=CC21 (centres undefined) [9-nitro-4-phenyl-3a,4,5,9b-tetrahydro-3H-cyclopenta[c]quinoline-6-carboxylic acid]
  EC50: 0.65 nM

## Cc1cc(C)c2c(c1)[C@@H]1C=CC[C@@H]1[C@H](c1ccc(S(=O)(=O)N3CCOCC3)cc1)N2 [(3aS,4R,9bR)-6,8-dimethyl-4-[4-(morpholin-4-ylsulfonyl)phenyl]-3a,4,5,9b-tetrahydro-3H-cyclopenta[c]quinoline]
[1]
  EC50: 165 nM

## O=C(O)c1cc(Cl)c2c(c1)[C@@H]1C=CC[C@@H]1[C@H](c1ccc(S(=O)(=O)N3CCOCC3)cc1)N2 [(3aS,4R,9bR)-6-chloranyl-4-(4-morpholin-4-ylsulfonylphenyl)-3a,4,5,9b-tetrahydro-3H-cyclopenta[c]quinoline-8-carboxylic acid]
[1]
  EC50: 729 nM

## C[C@]12CC[C@@H]3c4ccc(O)cc4C(=O)C[C@H]3[C@@H]1CC[C@@H]2O [(8R,9S,13S,14S,17S)-13-methyl-3,17-bis(oxidanyl)-8,9,11,12,14,15,16,17-octahydro-7H-cyclopenta[a]phenanthren-6-one]
[1]
  EC50: 38.1 nM

## CCC(=O)Oc1ccc(C(CC)C(CC)c2ccc(OC(=O)CC)cc2)cc1 (centres undefined) [HEXESTROL DIPROPIONATE]
  EC50: 7.69 nM

## COc1ccc(CNC(=O)c2cc(-c3cccs3)on2)cc1 [MLS000087249]
[1]
  EC50: 99.4 nM

## O=C1C=C/C(=C2/Nc3ccc4ccccc4c3C3=C2CCC3)C=C1O [SMR000184811]
  EC50: > 10000 nM
